Measurements published in PubChem BioAssay (NCI).
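All cell lines were grown in 96-well plates and treated with compound for 48 hours. GI50 marks 50% less growth. The concentration for full growth arrest is given as TGI.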

Columns and labels:
Experiment in all cases: DTP human tumour cell line panel, 48 h
LOX IMVI melanoma = test system: LOX IMVI melanoma
COLO 205 colon = test system: COLO 205 colon
OVCAR-4 ovarian = test system: OVCAR-4 ovarian
SNB-19 CNS = test system: SNB-19 CNS
CAKI-1 renal = test system: CAKI-1 renal
HS 578T breast = test system: HS 578T breast
SF-295 CNS = test system: SF-295 CNS
TK-10 renal = test system: TK-10 renal
T-47D breast = test system: T-47D breast
OVCAR-5 ovarian = test system: OVCAR-5 ovarian
MDA-MB-231 breast = test system: MDA-MB-231 breast
SK-MEL-2 melanoma = test system: SK-MEL-2 melanoma
NCI-H23 lung = test system: NCI-H23 lung
K-562 leukemia = test system: K-562 leukemia
MALME-3M melanoma = test system: MALME-3M melanoma
HT29 colon = test system: HT29 colon
SNB-75 CNS = test system: SNB-75 CNS
NCI-H522 lung = test system: NCI-H522 lung
SK-MEL-5 melanoma = test system: SK-MEL-5 melanoma
IGROV1 ovarian = test system: IGROV1 ovarian
NCI-H226 lung = test system: NCI-H226 lung
NCI-H460 lung = test system: NCI-H460 lung
HCC-2998 colon = test system: HCC-2998 colon
DU-145 prostate = test system: DU-145 prostate
RXF 393 renal = test system: RXF 393 renal
MOLT-4 leukemia = test system: MOLT-4 leukemia
HOP-62 NSCLC = test system: HOP-62 NSCLC
BT-549 breast = test system: BT-549 breast
CCRF-CEM leukemia = test system: CCRF-CEM leukemia

CCC(=O)Nc1cc(Nc2cc(NC3CC3)n3ncc(C#N)c3n2)ccc1C
GI50 (LOX IMVI melanoma): 1570 nM | TGI (LOX IMVI melanoma): 12900 nM | GI50 (COLO 205 colon): 981 nM | TGI (COLO 205 colon): 16300 nM | GI50 (OVCAR-4 ovarian): 1660 nM | TGI (OVCAR-4 ovarian): 67100 nM | GI50 (SNB-19 CNS): 1770 nM | TGI (SNB-19 CNS): > 100000 nM | GI50 (CAKI-1 renal): 430 nM | TGI (CAKI-1 renal): 3290 nM | GI50 (HS 578T breast): 216 nM | TGI (HS 578T breast): 1030 nM | GI50 (SF-295 CNS): 2340 nM | TGI (SF-295 CNS): 14800 nM | GI50 (TK-10 renal): 987 nM | TGI (TK-10 renal): 7520 nM | GI50 (T-47D breast): 1050 nM | TGI (T-47D breast): 9870 nM | GI50 (OVCAR-5 ovarian): 955 nM | TGI (OVCAR-5 ovarian): 33000 nM | GI50 (MDA-MB-231 breast): 1630 nM | TGI (MDA-MB-231 breast): 23300 nM | GI50 (SK-MEL-2 melanoma): 2650 nM | TGI (SK-MEL-2 melanoma): 18600 nM | GI50 (NCI-H23 lung): 1120 nM | TGI (NCI-H23 lung): 14900 nM | GI50 (K-562 leukemia): 1100 nM | TGI (K-562 leukemia): > 100000 nM | GI50 (MALME-3M melanoma): 2200 nM | TGI (MALME-3M melanoma): 69300 nM | GI50 (HT29 colon): 2180 nM | TGI (HT29 colon): > 100000 nM | GI50 (SNB-75 CNS): 52.1 nM | TGI (SNB-75 CNS): 974 nM | GI50 (NCI-H522 lung): 2480 nM | TGI (NCI-H522 lung): 27100 nM | GI50 (SK-MEL-5 melanoma): 1600 nM | TGI (SK-MEL-5 melanoma): 9150 nM | GI50 (IGROV1 ovarian): 1270 nM | TGI (IGROV1 ovarian): 6290 nM | GI50 (NCI-H226 lung): 1510 nM | TGI (NCI-H226 lung): 16600 nM | GI50 (NCI-H460 lung): 772 nM | TGI (NCI-H460 lung): 12300 nM | GI50 (HCC-2998 colon): 2460 nM | TGI (HCC-2998 colon): 18900 nM | GI50 (DU-145 prostate): 3960 nM | TGI (DU-145 prostate): 73300 nM | GI50 (RXF 393 renal): 3290 nM | TGI (RXF 393 renal): 15500 nM | GI50 (MOLT-4 leukemia): 3930 nM | TGI (MOLT-4 leukemia): 52200 nM | GI50 (HOP-62 NSCLC): 1840 nM | TGI (HOP-62 NSCLC): 25700 nM | GI50 (BT-549 breast): 1110 nM | TGI (BT-549 breast): 7450 nM | GI50 (CCRF-CEM leukemia): 1680 nM | TGI (CCRF-CEM leukemia): > 100000 nM
